“And” between values parts separate entries of the source, which are not always exact repeats. Equal entries are not always repeated. Toxic doses and inconclusive results are not listed.
Tested on: CD2F1 mice, L1210 leukemia ip, survival T/C
Experiment: NCI In Vivo Anticancer Drug Screen. Data for tumor model L1210 Leukemia (intraperitoneal) in CD2F1 (CDF1) mice
Details: higher = longer survival
Summary of the method: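 Tumor-bearing mice (transplanted tumor) were split into treated and vehicle control groups, and the measured endpoint of each treated group was divided by that of its vehicle controls.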

[1] = endpoint: mean survival time, dose: 100.0 mg/kg/injection, schedule: Q01DX001 (ip), vehicle: saline with Tween-80
[2] = endpoint: mean survival time, dose: 200.0 mg/kg/injection, schedule: Q01DX001 (ip), vehicle: saline with Tween-80
[3] = endpoint: mean survival time, dose: 400.0 mg/kg/injection, schedule: Q01DX001 (ip), vehicle: saline with Tween-80
[4] = endpoint: mean survival time, dose: 100.0 mg/kg/injection, schedule: Q04DX003 (ip), vehicle: saline with Tween-80
[5] = endpoint: mean survival time, dose: 200.0 mg/kg/injection, schedule: Q04DX003 (ip), vehicle: saline with Tween-80

With Nc1nc(N)c2nc(CN(CCO)c3ccc(C(=O)NC(CCC(=O)O)C(=O)O)cc3)cnc2n1 (stereo not given) the T/C (endpoint: mean survival time, dose: 2.0 mg/kg/injection, schedule: Q01DX009 (ip), vehicle: Klucel (hydroxypropylcellulose) (HPC)) was 162 % of control, the T/C (endpoint: mean survival time, dose: 4.0 mg/kg/injection, schedule: Q01DX009 (ip), vehicle: Klucel (hydroxypropylcellulose) (HPC)) was 190 % of control and the T/C (endpoint: mean survival time, dose: 8.0 mg/kg/injection, schedule: Q01DX009 (ip), vehicle: Klucel (hydroxypropylcellulose) (HPC)) was 171 % of control.
With CC(CCC(=O)O)C1CCC2C3CCC4CCCCC4(C)C3CCC12C (stereo not given) the T/C [1] was 98 % of control, the T/C [2] was 93 % of control and the T/C [3] was 92 % of control.
CCCCCCCCCCS(=O)CC(CO)NC(=O)/C=C/c1c(C)[nH]c(=O)[nH]c1=O (stereo not given) was tested, and the T/C (endpoint: mean survival time, dose: 0.37 mg/kg/injection, schedule: Q01DX009 (ip), vehicle: distilled water + Tween-80) was 102 % of control and 106 % of control, the T/C (endpoint: mean survival time, dose: 0.75 mg/kg/injection, schedule: Q01DX009 (ip), vehicle: distilled water + Tween-80) was 110 % of control and 111 % of control and the T/C (endpoint: mean survival time, dose: 1.5 mg/kg/injection, schedule: Q01DX009 (ip), vehicle: distilled water + Tween-80) was 113 % of control and 101 % of control. For the same molecule, the T/C (endpoint: mean survival time, dose: 3.0 mg/kg/injection, schedule: Q01DX009 (ip), vehicle: distilled water + Tween-80) was 114 % of control and 117 % of control, the T/C (endpoint: mean survival time, dose: 6.0 mg/kg/injection, schedule: Q01DX009 (ip), vehicle: distilled water + Tween-80) was 117 % of control and the T/C (endpoint: mean survival time, dose: 12.0 mg/kg/injection, schedule: Q01DX009 (ip), vehicle: distilled water + Tween-80) was 89 % of control and 96 % of control.
CCCC1(CCC)c2ccccc2C(Cl)(CCl)c2ccccc21 was tested, and the T/C (endpoint: mean survival time, dose: 12.5 mg/kg/injection, schedule: Q01DX009 (ip), vehicle: other) was 88 % of control, the T/C (endpoint: mean survival time, dose: 25.0 mg/kg/injection, schedule: Q01DX009 (ip), vehicle: other) was 94 % of control and the T/C (endpoint: mean survival time, dose: 50.0 mg/kg/injection, schedule: Q01DX009 (ip), vehicle: other) was 92 % of control. For the same molecule, the T/C (endpoint: mean survival time, dose: 100.0 mg/kg/injection, schedule: Q01DX009 (ip), vehicle: other) was 94 % of control and the T/C (endpoint: mean survival time, dose: 200.0 mg/kg/injection, schedule: Q01DX009 (ip), vehicle: other) was 86 % of control.
With N/N=C(\NN)c1ccccc1 the T/C [4] was 92 % of control, the T/C [5] was 87 % of control and the T/C (endpoint: mean survival time, dose: 400.0 mg/kg/injection, schedule: Q04DX003 (ip), vehicle: saline with Tween-80) was 92 % of control.
FC(F)(F)C1(F)N(Cc2ccccc2)N=NC1(F)F (stereo not given) was tested, and the T/C (endpoint: mean survival time, dose: 75.0 mg/kg/injection, schedule: Q01DX001 (ip), vehicle: saline) was 96 % of control, the T/C (endpoint: mean survival time, dose: 150.0 mg/kg/injection, schedule: Q01DX001 (ip), vehicle: saline) was 98 % of control and the T/C (endpoint: mean survival time, dose: 300.0 mg/kg/injection, schedule: Q01DX001 (ip), vehicle: saline) was 96 % of control.
With Cn1c[n+](C)c2ncncc21 the T/C (endpoint: mean survival time, dose: 3.8 mg/kg/injection, schedule: Q01DX005 (ip), vehicle: water) was 102 % of control, the T/C (endpoint: mean survival time, dose: 7.5 mg/kg/injection, schedule: Q01DX005 (ip), vehicle: water) was 102 % of control and the T/C (endpoint: mean survival time, dose: 15.0 mg/kg/injection, schedule: Q01DX005 (ip), vehicle: water) was 117 % of control. For the same molecule, the T/C (endpoint: mean survival time, dose: 30.0 mg/kg/injection, schedule: Q01DX005 (ip), vehicle: water) was 98 % of control and the T/C (endpoint: mean survival time, dose: 60.0 mg/kg/injection, schedule: Q01DX005 (ip), vehicle: water) was 95 % of control.
For Cc1ccc(S(=O)(=O)Nc2ccc(Cl)c(Cl)c2)cc1, the T/C [1] was 104 % of control, the T/C (endpoint: mean survival time, dose: 100.0 mg/kg/injection, schedule: Q01DX009 (ip), vehicle: Klucel (hydroxypropylcellulose) (HPC)) was 105 % of control and the T/C [2] was 101 % of control. The T/C (endpoint: mean survival time, dose: 200.0 mg/kg/injection, schedule: Q01DX009 (ip), vehicle: Klucel (hydroxypropylcellulose) (HPC)) was 95 % of control and the T/C [3] was 103 % of control.
In the case of O=C(O)c1ccccc1SCCO, the T/C (endpoint: mean survival time, dose: 100.0 mg/kg/injection, schedule: Q01DX001 (ip), vehicle: Klucel (hydroxypropylcellulose) (HPC)) is reported as 93 % of control, the T/C (endpoint: mean survival time, dose: 200.0 mg/kg/injection, schedule: Q01DX001 (ip), vehicle: Klucel (hydroxypropylcellulose) (HPC)) is reported as 102 % of control and the T/C (endpoint: mean survival time, dose: 400.0 mg/kg/injection, schedule: Q01DX001 (ip), vehicle: Klucel (hydroxypropylcellulose) (HPC)) is reported as 104 % of control.
In the case of C=Cc1cc(OC)c2c(c1)c(=O)oc1c2cc(OC)c2c(O)ccc(C3OC(C)C(O)C(C)(O)C3O)c21 (stereo not given), the T/C (endpoint: median survival time, dose: 5.0 mg/kg/injection, schedule: Q01DX009 (ip), vehicle: DMSO) is reported as 107 % of control, the T/C (endpoint: median survival time, dose: 10.0 mg/kg/injection, schedule: Q01DX009 (ip), vehicle: DMSO) is reported as 116 % of control and 111 % of control and the T/C (endpoint: median survival time, dose: 10.0 mg/kg/injection, schedule: Q01DX009 (ip), vehicle: other) is reported as 118 % of control. The T/C (endpoint: median survival time, dose: 20.0 mg/kg/injection, schedule: Q01DX009 (ip), vehicle: DMSO) was 116 % of control and 122 % of control, the T/C (endpoint: median survival time, dose: 80.0 mg/kg/injection, schedule: Q01DX009 (ip), vehicle: DMSO) was 155 % of control and the T/C (endpoint: median survival time, dose: 160.0 mg/kg/injection, schedule: Q01DX009 (ip), vehicle: DMSO) was 120 % of control. The T/C (endpoint: median survival time, dose: 160.0 mg/kg/injection, schedule: Q01DX009 (ip), vehicle: other) was 113 % of control.
With C=CS(C=C)=NS(=O)(=O)c1ccc(C)cc1 the T/C (endpoint: mean survival time, dose: 1.56 mg/kg/injection, schedule: Q01DX009 (ip), vehicle: Klucel (hydroxypropylcellulose) (HPC)) was 97 % of control and 107 % of control, the T/C (endpoint: mean survival time, dose: 3.12 mg/kg/injection, schedule: Q01DX009 (ip), vehicle: Klucel (hydroxypropylcellulose) (HPC)) was 100 % of control and 105 % of control and the T/C (endpoint: mean survival time, dose: 6.25 mg/kg/injection, schedule: Q01DX009 (ip), vehicle: Klucel (hydroxypropylcellulose) (HPC)) was 95 % of control and 103 % of control. The T/C (endpoint: mean survival time, dose: 12.5 mg/kg/injection, schedule: Q01DX009 (ip), vehicle: Klucel (hydroxypropylcellulose) (HPC)) was 100 % of control and 107 % of control and the T/C (endpoint: mean survival time, dose: 25.0 mg/kg/injection, schedule: Q01DX009 (ip), vehicle: Klucel (hydroxypropylcellulose) (HPC)) was 97 % of control and 105 % of control.
In the case of O=S(=O)(OCC(COS(=O)(=O)c1ccccc1)(COS(=O)(=O)c1ccccc1)COS(=O)(=O)c1ccccc1)c1ccccc1, the T/C (endpoint: mean survival time, dose: 50.0 mg/kg/injection, schedule: Q01DX009 (ip), vehicle: saline with Tween-80) is reported as 96 % of control, the T/C (endpoint: mean survival time, dose: 100.0 mg/kg/injection, schedule: Q01DX009 (ip), vehicle: saline with Tween-80) is reported as 97 % of control and the T/C [4] is reported as 86 % of control. The T/C (endpoint: mean survival time, dose: 200.0 mg/kg/injection, schedule: Q01DX009 (ip), vehicle: saline with Tween-80) was 95 % of control and the T/C [5] was 89 % of control.
Nc1c(-c2ncc[nH]2)ncn1CC(O)C(O)C(O)CO (stereo not given) was tested, and the T/C (endpoint: mean survival time, dose: 12.5 mg/kg/injection, schedule: Q01DX005 (ip), vehicle: saline with Tween-80) was 98 % of control, the T/C (endpoint: mean survival time, dose: 25.0 mg/kg/injection, schedule: Q01DX005 (ip), vehicle: saline with Tween-80) was 101 % of control and the T/C (endpoint: mean survival time, dose: 50.0 mg/kg/injection, schedule: Q01DX005 (ip), vehicle: saline with Tween-80) was 103 % of control. For the same molecule, the T/C (endpoint: mean survival time, dose: 100.0 mg/kg/injection, schedule: Q01DX005 (ip), vehicle: saline with Tween-80) was 92 % of control and the T/C (endpoint: mean survival time, dose: 200.0 mg/kg/injection, schedule: Q01DX005 (ip), vehicle: saline with Tween-80) was 98 % of control.
In the case of O=C1[O][Sb]23[O]C(=O)C([O]2)C(O)C(O)C2[O][Sb]4([O]C(=O)C([O]4)C(O)C(O)C1[O]3)[O]C2=O (stereo not given), the T/C (endpoint: mean survival time, dose: 25.0 mg/kg/injection, schedule: Q01DX009 (ip), vehicle: saline) is reported as 95 % of control, the T/C (endpoint: mean survival time, dose: 50.0 mg/kg/injection, schedule: Q01DX001 (ip), vehicle: saline) is reported as 97 % of control and the T/C (endpoint: mean survival time, dose: 50.0 mg/kg/injection, schedule: Q01DX009 (ip), vehicle: saline) is reported as 95 % of control. The T/C (endpoint: mean survival time, dose: 50.0 mg/kg/injection, schedule: Q04DX003 (ip), vehicle: saline) was 87 % of control, the T/C (endpoint: mean survival time, dose: 100.0 mg/kg/injection, schedule: Q01DX001 (ip), vehicle: saline) was 101 % of control and the T/C (endpoint: mean survival time, dose: 100.0 mg/kg/injection, schedule: Q01DX009 (ip), vehicle: saline) was 98 % of control. For the same molecule, the T/C (endpoint: mean survival time, dose: 100.0 mg/kg/injection, schedule: Q04DX003 (ip), vehicle: saline) was 91 % of control and the T/C (endpoint: mean survival time, dose: 200.0 mg/kg/injection, schedule: Q01DX001 (ip), vehicle: saline) was 96 % of control.
OC1COC(C(/C=N/Nc2ccccc2)=N/Nc2ccccc2)C1O (stereo not given) was tested, and the T/C (endpoint: median survival time, dose: 25.0 mg/kg/injection, schedule: Q01DX005 (ip), vehicle: distilled water + Tween-80) was 97 % of control, the T/C (endpoint: median survival time, dose: 50.0 mg/kg/injection, schedule: Q01DX005 (ip), vehicle: distilled water + Tween-80) was 94 % of control and the T/C (endpoint: median survival time, dose: 100.0 mg/kg/injection, schedule: Q01DX005 (ip), vehicle: distilled water + Tween-80) was 87 % of control. For the same molecule, the T/C (endpoint: median survival time, dose: 200.0 mg/kg/injection, schedule: Q01DX005 (ip), vehicle: distilled water + Tween-80) was 92 % of control and the T/C (endpoint: median survival time, dose: 400.0 mg/kg/injection, schedule: Q01DX005 (ip), vehicle: distilled water + Tween-80) was 92 % of control.
COC(=O)NC1C(C)OC(OC2C/C=C(/C)C3C=CC4C(OC5CC(OC6CCC(OC7CC(O)C(OC8CCC(O)C(C)O8)C(C)O7)C(C)O6)C(OC(C)=O)C(C)O5)C(C)CC(C)C4C3(C)/C(O)=C3/C(=O)OC4(CC(C=O)=CC(O)C4/C=C\2C)C3=O)CC1(C)[N+](=O)[O-] (stereo not given) was tested, and the T/C (endpoint: median survival time, dose: 1.25 mg/kg/injection, schedule: Q01DX009 (ip), vehicle: water) was 106 % of control, the T/C (endpoint: median survival time, dose: 2.5 mg/kg/injection, schedule: Q01DX009 (ip), vehicle: water) was 106 % of control and the T/C (endpoint: median survival time, dose: 5.0 mg/kg/injection, schedule: Q01DX009 (ip), vehicle: water) was 113 % of control. For the same molecule, the T/C (endpoint: median survival time, dose: 10.0 mg/kg/injection, schedule: Q01DX009 (ip), vehicle: water) was 121 % of control.
